According to patent US8633168B2, “Inhibitors of S-adenosyl-L-methionine decarboxylase” (Genzyme Corporation, priority 2007, dated 2014):

Tests used:
[1] = molecular target: T1, T. brucei SAM DC (Trypanosoma brucei brucei, UniProt P50244); assay: SAMDC enzyme inhibition assay (14CO2 release from 14C-AdoMet); type: biochemical; details: Table 1; read-out: kinact/Ki^app against SAM DC enzyme by SW (converted)
T1 construct: made in house
T1 sequence (P50244 86-370 limits assumed): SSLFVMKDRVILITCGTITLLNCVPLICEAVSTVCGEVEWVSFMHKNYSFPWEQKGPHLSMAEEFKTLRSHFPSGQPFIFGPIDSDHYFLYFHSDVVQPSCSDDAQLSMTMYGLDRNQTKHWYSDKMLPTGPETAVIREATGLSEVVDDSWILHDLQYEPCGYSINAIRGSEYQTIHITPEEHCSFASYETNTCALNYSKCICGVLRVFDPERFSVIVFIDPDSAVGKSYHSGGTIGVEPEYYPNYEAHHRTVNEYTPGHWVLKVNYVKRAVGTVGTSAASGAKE
Experimental: Steady state kinetics were performed as described (Kinch, L. N., J. R. Scott, B. Ullman, and M. A. Phillips. “Cloning and Kinetic Characterization of the Trypanosoma Cruzi S-Adenosylmethionine Decarboxylase.” Mol Biochem Parasitol 101, no. 1-2 (1999): 1-11. Beswick, T. C., E. K. Willert, and M. A. Phillips. “Mechanisms of Allosteric Regulation of Trypanosoma Cruzi S-Adenosylmethionine Decarboxylase.” Biochemistry 45, no. 25 (2006): 7797-807.). This assay measures the amount of ^14CO2 elaborated by enzymatic cleavage of ^14C-AdoMet. Reactions were carried out in assay buffer (100 mM Hepes pH 8.0, 50 mM NaCl, and 1 mM DTT) using the AdoMetDC/AdoMetDC Prozyme complex at ^14C-AdoMet concentrations of 10-160 μM with saturating putrescine (5 mM) (Willert E K, Phillips M A, 2007. “Allosteric regulation of an essential trypanosome polyamine biosynthetic enzyme by a catalytically dead homolog”. Proc Natl Acad Sci USA 104: 8275-8280). The reaction components were added to a test tube on ice to a total final volume of 100 μl. The reaction was initiated by the addition of enzyme (1-4 μM for T. brucei SAM DC), and a piece of filter paper soaked in saturated barium hydroxide was hung on the side of the test tube, which was then capped with a rubber stopper. Reactions were incubated at 37° C. in a water bath for 5-40 minutes. The assay was stopped by the addition of 200 μl 6 M HCl. The quenched reaction was kept at 37° C. for at least 30 minutes to allow for evolution of the CO2 from the solution. The filter paper was then added to 5 ml of scintillation fluid and counted. Test compounds were assessed over a range of 4 concentrations. Kinetic and regression analysis were performed using GraphPad Prism™.
Purified, recombinant T. brucei SAM-decarboxylase and its prozyme are prepared and assayed in the laboratory of Dr. Phillips according to procedures from that lab. Kinch L N, Scott J R, Ullman B, Phillips M A, “Cloning and kinetic characterization of the Trypanosoma cruzi S-adenosylmethionine decarboxylase,” Mol Biochem Parasitol 101: 1-11. Willert E K, Fitzpatrick R, Phillips M A, 2007 (1999). Briefly, the assay employs ^14C-labelled S-adenosyl methionine (^14C-AdoMet). Reactions are carried out in buffer (100 mM Hepes pH 8.0, 50 mM NaCl, and 5 mM DTT) at ^14C-AdoMet concentrations of 10-160 μM with saturating putrescine (5 mM). The reaction components are added to a test tube on ice to a total final volume of 100 μl. The reaction is initiated by the addition of enzyme (1-4 μM for T. brucei SAM DC), and a piece of filter paper soaked in saturated barium hydroxide is hung on the side of the test tube, which is then capped with a rubber stopper. Reactions are incubated at 37° C. in a water bath for 5-40 minutes. The assay is stopped by the addition of 200 μl 6 M HCl. The quenched reaction is kept at 37° C. for at least 30 minutes to allow for evolution of the CO2 from the solution. The filter paper is then added to 5 ml of scintillation fluid and counted. Test compounds were assessed over a range of 4 concentrations. Kinetic and regression analysis are performed using GraphPad Prism.™ Results of this test are exemplified in FIG. 4.

[2] = Permeability through lipid soaked artificial membrane; type: in vitro ADME; details: for Perm.: Table 2; for Papp: PAMPA
Experimental: A stock solution for each test compound was prepared at 10 mM in DMSO. These were diluted into phosphate buffer and placed on one side (donor) of a two chamber microtiter plate separated by a lipid soaked membrane. With time, the compound passively diffused across the membrane barrier and the concentration in the second chamber (acceptor) increases. At the end of the experiment, drug concentration was determined in both the donor and acceptor solutions by UV absorbance. The permeability was calculated from the change in concentration, surface area, and incubation time.

[3] = Hepatocyte stability, rat; type: in vitro ADME; details: for Hepatocyte stability (CL) rat: Table 2; for CLint scaled: hepatocytes, Example 12 chart
Experimental: Liver microsomes and hepatocytes represent an in vitro surrogate for assessing the phase I/II metabolic stability of new discovery leads. Following the incubation of the compounds with microsomes or hepatocytes of different species (e.g., human, rat, dog, monkey, mouse), the samples were transferred to 96 well plates for quantitation using LC/MS/MS. The % of compound remaining was measured and used to calculate clearance and % hepatic blood flow.

[4] = Mouse PK study; type: in vivo; details: for t/2 in mouse: Table 3
Experimental: The rodent PK study designs provide reliable estimation of PK parameters using fewer animals. Often two routes, PO and IV, were included in the rodent PK study protocols with three subjects in each dosing group (often PO at 10 mg/kg and IV at 3 mg/kg).

[5] = system: T. b. brucei; assay: Cell-based screening against T. b. brucei; design: species or system Trypanosoma brucei brucei; details: for IC50: Screening Data, two values per compound
Experimental: The bloodstream form trypomastigotes of the three strains are maintained according to standard protocols established at STI.
Drug sensitivity assays are performed in sterile 96-well microtiter plates, with or without serial drug dilutions. The highest concentration for the test compounds is 90 μg/ml. Each drug is tested in duplicate. After 72 hours of incubation the plates are inspected microscopically to assure growth of the controls to determine the minimum inhibitory concentration (MIC), i.e., the lowest drug concentration at which no trypanosomes with normal morphology and motility can be seen compared to control wells. Cell viability is measured by Alamar blue staining and IC50 values are calculated.
Active compounds (IC50<0.2 μg/ml) are tested against the Trypanosoma brucei gambiense STIB 930 and the multi-drug resistant T. b. brucei STIB 950 following the same protocol as described above.
This example provides data relating to the biological screening results. MDL 73811 and selected new compounds 1-7 were tested against a variety of cell-based organisms and enzymes and the IC50 measured. In vitro ADME profiles were also obtained. Solubility, permeability, microsomal/hepatocyte stability, cychrome P450 inhibition and plasma protein binding characteristics were probed for each of the compounds. The methodology for these tests are described in previous paragraphs. The results are summarized in the following 2 charts.

SMILES | kinact/KI [1] | Perm. [2] | Hepatocyte stability (CL) rat [3] | CLint scaled [3] | t/2 in mouse [4] | IC50 ([5]; Trypanosoma brucei) | Papp ([2]; Example 12 chart) | t/2, fold greater than that for MDL-73811 ([4]; vs MDL-73811) | potency against T. b. brucei, fold greater than that of MDL73811 ([5]; vs MDL73811) | Permeability ([2]; Example 12 chart) | IC50 [5]
CN(C/C=C\CN)C[C@H]1O[C@@H](n2cnc3c(N)ncnc32)[C@H](F)[C@@H]1O (stereo in doubt) [Compound 1] | 3200 M⁻¹ s⁻¹ | 0.00 10-6 cm/s | <11 mL/min/kg | < 3.5 mL/min/kg | 1.93 h | > 14 µM | – | – | – | – | –
Cc1nc2c(N)ncnc2n1[C@@H]1O[C@H](CN(C)C/C=C\CN)[C@@H](O)[C@H]1O (stereo in doubt) [Compound 4] | 130000 M⁻¹ s⁻¹ | 0.22 10-6 cm/s | <11 mL/min/kg | < 3.5 mL/min/kg | 7.43 h | 0.027 µM | 0.22 ×10⁻⁶ cm/s | ~3 fold | 10 fold | – | –
CN(C/C=C\CN)C[C@H]1O[C@@H](n2cnc3c(N)ncnc32)[C@@H](F)[C@@H]1O [Compound 2] | 32700 M⁻¹ s⁻¹ | 0.00 10-6 cm/s | <11 mL/min/kg | < 3.5 mL/min/kg | – | > 14 µM | – | – | – | – | –
CN(C/C=C\CN)C[C@H]1O[C@@H](n2cnc3c(N)nc(Cl)nc32)[C@H](O)[C@@H]1O [Compound 3] | 300 M⁻¹ s⁻¹ | 0.36 10-6 cm/s | <11 mL/min/kg | < 3.5 mL/min/kg | 1.66 h | 8.57 µM | – | – | – | 0.36 10−6 cm/sec | 5.96 µM
CN(C/C=C\CN)CC1OC(n2cnc3c(N)ncnc32)C(O)C1O (stereo not drawn) [MDL-73811, reference compound] | 24900 M⁻¹ s⁻¹ | 0.13 10-6 cm/s | <11 mL/min/kg | < 3.5 mL/min/kg | 2.48 h | 0.171 µM | 1.1 ×10⁻⁶ cm/s | – | – | – | 0.257 µM
